Measurements as given in patent US20170150719A1, “FUNGICIDAL PYRAZOLES AND THEIR MIXTURES” (E I DU PONT DE NEMOURS AND COMPANY, priority 2010, published 2017).
Marks after values point to notes of the source that are not given here.

Experiments:
Septoria tritici = experiment: Test F: wheat leaf blotch, preventive spray on wheat seedlings, visual disease rating; assay type: in vivo; design: Test F rating (disease control), value marked *: concentration or dose not given beside the values; conditions: for Test F rating (disease control), value marked *: rating marked with asterisk (*), other test condition, not explained in the text shown; for Test F rating (% disease control): preventive spray, rating without asterisk
Excerpt: (§1) A hyphen (-) indicates no test results.

[1] = tested on: Puccinia recondita f. sp. tritici; experiment: Test G: wheat leaf rust, spray after inoculation (curative) on wheat seedlings, visual disease rating; assay type: in vivo; conditions: for Test G rating (disease control), value marked *: rating marked with asterisk (*), not explained in the text shown; for Test G rating (% disease control): spray after inoculation, rating without asterisk
Excerpt: as §1

[2] = tested on: Puccinia recondita f. sp. tritici; experiment: Test H: wheat leaf rust, preventive spray on wheat seedlings, visual disease rating; conditions: for Test H rating (disease control) / Test H rating (disease control), value marked * / Test H rating (% disease control): wheat leaf rust; for Test H rating (disease control): sprayed the day before inoculation; for Test H rating (disease control), value marked *: preventive, rating marked with asterisk (*), not explained in the text shown; for Test H rating (% disease control): preventive spray, rating without asterisk
Procedure: General protocol for preparing test suspensions for Tests A-I: the test compounds were first dissolved in acetone in an amount equal to 3% of the final volume and then suspended at the desired concentration (in ppm) in acetone and purified water (50/50 mix by volume) containing 250 ppm of the surfactant Trem® 014 (polyhydric alcohol esters). The resulting test suspensions were then used in Tests A-I. Each test was conducted in triplicate, and the results were averaged. Spraying a 200 ppm test suspension to the point of run-off on the test plants was the equivalent of a rate of about 800 g/ha. Unless otherwise indicated, the rating values indicate a 200 ppm test suspension was used. (An asterisk “*” next to the rating value indicates a 40 ppm test suspension was used.)
The test suspension was sprayed to the point of run-off on wheat seedlings. The following day the seedlings were inoculated with a spore suspension of Puccinia recondita f. sp. tritici (the causal agent of wheat leaf rust) and incubated in a saturated atmosphere at 20° C. for 24 h, and then moved to a growth chamber at 20° C. for 6 days, after which time visual disease ratings were made.

Botrytis cinerea = experiment: Test A: tomato Botrytis, preventive spray on tomato seedlings, visual disease rating; conditions: for Test A rating (disease control) / Test A rating (disease control), value marked * / Test A rating (% disease control): tomato Botrytis; for Test A rating (disease control), value marked *: rating marked with asterisk (*), other test condition, not explained in the text shown; for Test A rating (% disease control): preventive spray, 0 = no control relative to controls, rating without asterisk
Alternaria solani = experiment: Test B: tomato early blight, preventive spray on tomato seedlings, visual disease rating; conditions: for Test B rating (disease control) / Test B rating (disease control), value marked * / Test B rating (% disease control): tomato early blight; for Test B rating (disease control) / Test B rating (% disease control): 100 = 100% disease control; for Test B rating (disease control): 0 = no disease control relative to the controls; for Test B rating (disease control), value marked *: rating marked with asterisk (*), other test condition, not explained in the text shown; for Test B rating (% disease control): preventive spray, rating without asterisk
[3] = tested on: Blumeria graminis f. sp. tritici; experiment: Test I: wheat powdery mildew, preventive spray on wheat seedlings, visual disease rating; conditions: for Test I rating (disease control) / Test I rating (disease control), value marked * / Test I rating (% disease control): wheat powdery mildew; for Test I rating (disease control), value marked *: rating marked with asterisk (*), not explained in the text shown; for Test I rating (% disease control): preventive spray, rating without asterisk
Septoria nodorum = experiment: Test E: Septoria glume blotch, preventive spray on wheat seedlings, visual disease rating; conditions: for Test E rating (disease control) / Test E rating (disease control), value marked *: Septoria glume blotch; for Test E rating (disease control), value marked *: rating marked with asterisk (*), other test condition, not explained in the text shown; for Test E rating (% disease control): Septoria glume blotch on wheat, preventive spray, rating without asterisk
[4] = 100 = 100% disease control, 0 = no disease control relative to the controls
[5] = sprayed after inoculation, 100 = 100% disease control, 0 = no disease control
[6] = 100 = 100% disease control, 0 = no disease control

Structure (SMILES)	Test F rating (disease control) (Septoria tritici; [4]) [%]	Test G rating (disease control) [1, 5] [%]	Test H rating (disease control) [2, 6] [%]	Test A rating (disease control) (Botrytis cinerea; [4]) [%]	Test B rating (disease control) (Alternaria solani) [%]	Test I rating (disease control) [3, 4] [%]	Test E rating (disease control) (Septoria nodorum; [4]) [%]	Test F rating (% disease control) (Septoria tritici; 100 = 100% disease control) [%]	Test G rating (% disease control) ([1]; 100 = 100% disease control) [%]	Test H rating (% disease control) ([2]; 100 = 100% disease control) [%]	Test A rating (% disease control) (Botrytis cinerea; 100 = 100% disease control) [%]	Test B rating (% disease control) (Alternaria solani) [%]	Test I rating (% disease control) ([3]; 100 = 100% disease control) [%]	Test E rating (% disease control) (Septoria nodorum; 100 = 100% disease control) [%]	also measured
Cc1nn(C)c(Nc2c(F)cc(F)cc2F)c1-c1ccc(Cl)cc1Cl [compound 18]	99	95	99	100	98	97	98								
Cc1nn(C)c(Oc2ccc(C#N)cc2F)c1-c1ccc(F)cc1F [compound 159]															Test F rating (disease control), value marked * (Septoria tritici): 100* %; Test G rating (disease control), value marked * ([1]; sprayed after inoculation): 0* %; Test H rating (disease control), value marked * [2]: 98* %; Test A rating (disease control), value marked * (Botrytis cinerea): 100* %; Test B rating (disease control), value marked * (Alternaria solani): 97* %; Test I rating (disease control), value marked * [3]: 96* %; Test E rating (disease control), value marked * (Septoria nodorum): 86* %
Cc1nn(C)c(Nc2c(F)cc(Cl)cc2F)c1-c1ccc(Cl)cc1F [compound 230]								100	0	94	40	0	95	0	
COc1ccc(Nc2c(-c3c(F)cccc3F)c(C)nn2C)c(Cl)c1 [compound 60]	100	18	97	99	97	99	20								
Cc1nn(C)c(Nc2c(Cl)cc(F)cc2Br)c1-c1ccc(F)cc1F [compound 120]	100	19	100	100	80	100	94								
COc1cc(F)c(-c2c(C)nn(C)c2Oc2c(F)cc(Cl)cc2F)c(F)c1 [Compound 15]	98	82	100	98	100	100	89								
Cc1nn(C)c(Nc2ccc(F)cc2F)c1-c1ccccc1F [compound 52]	100	0	60	94	44	98	0								
Cc1nn(C)c(Nc2ccc(F)cc2F)c1-c1ccc(F)cc1F [compound 64]	100	0	97	99	99	100	0								
Cc1nn(C)c(Nc2c(F)cc(I)cc2F)c1-c1ccc(F)cc1F [compound 216]								100	18	95	100	0	99	60	
Cc1nn(C)c(Nc2c(F)cc(Cl)cc2I)c1-c1ccc(F)cc1Cl [compound 182]								100	100	100	100	100	100	100	
Cc1nn(C)c(Nc2c(F)cc(Cl)cc2F)c1-c1ccc(F)cc1I [compound 225]								100	0	99	99	68	100	0	
Cc1nn(C)c(Nc2c(F)cc(Br)cc2F)c1-c1ccc(F)cc1Br [compound 163]															Test F rating (disease control), value marked * (Septoria tritici): 100* %; Test G rating (disease control), value marked * ([1]; sprayed after inoculation): 91* %; Test H rating (disease control), value marked * [2]: 100* %; Test A rating (disease control), value marked * (Botrytis cinerea): 100* %; Test B rating (disease control), value marked * (Alternaria solani): 77* %; Test I rating (disease control), value marked * [3]: 100* %; Test E rating (disease control), value marked * (Septoria nodorum): 60* %
Cc1nn(C)c(Nc2ccc(F)cc2F)c1-c1ccc(Cl)cc1Cl [Compound 17, 4-(2,4-dichlorophenyl)-N-(2,4-difluorophenyl)-1,3-dimethyl-1H-pyrazol-5-amine]															pest or weed control at 200 µg/mL (Septoria tritici; Zymoseptoria tritici, 100 = 100% disease control, 0 = no disease control relative to the controls): 99%; pest or weed control at 200 µg/mL [1, 5]: 91%; pest or weed control at 200 µg/mL ([2]; read-out: Test H rating (disease control), wheat leaf rust, sprayed the day before inoculation, 100 = 100% disease control, 0 = no disease control): 99%; pest or weed control at 200 µg/mL (Botrytis cinerea; Botrytis cinerea, in Solanum lycopersicum, read-out: Test A rating (disease control), tomato Botrytis, 100 = 100% disease control, 0 = no disease control relative to the controls): 100%; pest or weed control at 200 µg/mL (Alternaria solani; Alternaria solani, in Solanum lycopersicum, read-out: Test B rating (disease control)): 73%; pest or weed control at 200 µg/mL ([3]; Blumeria graminis, in Triticum aestivum, read-out: Test I rating (disease control), wheat powdery mildew, 100 = 100% disease control, 0 = no disease control relative to the controls): 100%; pest or weed control at 200 µg/mL (Septoria nodorum; Parastagonospora nodorum, in Triticum aestivum, read-out: Test E rating (disease control), Septoria glume blotch, 100 = 100% disease control, 0 = no disease control relative to the controls): 60%
COc1cc(F)c(-c2c(C)nn(C)c2Oc2ccc(Cl)cc2Cl)c(F)c1 [compound 10]	94	92	99	99	0	99	0								
Cc1nn(C)c(Nc2ccc(F)cc2I)c1-c1ccc(F)cc1Cl [compound 181]								100	99	99	100	99	100	99	
Cc1nn(C)c(Nc2ccc(Cl)cc2Cl)c1-c1c(F)cccc1F [compound 50]	95	0	93	100	99	100	73								
